Test: Safety and tolerability of oral (Z)-Endoxifen in healthy female volunteers
Assay type: in vivo, human
Description: Study assessments included taking the subjects medical history, including evaluation of any on-study adverse events and concomitant medication use; height and weight; physical examination; periodic vital signs (body temperature, heart rate, respiratory rate, blood pressure); periodic 12-lead ECGs. […] Specific assessments to evaluate treatment safety included the following: the frequency and type of adverse events, clinical laboratory testing, 12-lead ECGs and vital signs. A modified FACT-ES® scoring questionnaire was used to assess symptomatology.
Safety endpoints were summarized by dose cohort, with placebos pooled across cohorts. Treatment-emergent AEs were coded using the latest version of MedDRA by System Organ Class (SOC) and Preferred Term, classified from verbatim terms. The incidence and frequency of AEs, and SAEs, were summarized by cohort according to SOC and Preferred Terms, and by severity and relationship. The duration of AEs was determined and included in listings, along with the action taken and outcome. Vital signs, ECG and safety laboratory parameters were summarized at each scheduled time point using descriptive statistics. Post-dose assessments were compared with baseline measurements. The incidence of laboratory abnormalities was summarized. Physical examination findings were presented in listings.

CC/C(=C(\c1ccc(O)cc1)c1ccc(OCCNC)cc1)c1ccccc1 [(Z)-Endoxifen, (Z)-4-(1-(4-(2-(methylamino)ethoxy)phenyl)-2-phenylbut-1-enyl) phenol]
subjects with treatment related AEs of moderate severity (5 of 18 subjects): 28% | subjects with treatment-emergent AEs deemed related to study drug (15 of 18 subjects, oral 1-4 mg): 83% | number of treatment related AEs of moderate severity (18 subjects): 6 AEs | number of treatment-related AEs (18 subjects, oral 1-4 mg): 41 AEs | severity of AEs (all AEs mild (75 of 84) or moderate (9 of 84), incl. placebo): no AEs classified as severe | adverse events reported only in subjects who received (Z)-Endoxifen (human, in vivo): Upper respiratory infection, hot flush, abdominal distension, dry mouth, and menstruation delayed | safety by clinical laboratory tests, vital signs, ECG, FACT-ES versus placebo (human, in vivo): no clear differences in safety

From US12275684B2, “Methods for making and using endoxifen” (Atossa Therapeutics, Inc., priority 2017, dated 2025)
